“Also recorded” adds a separate entry of the source.
Columns and labels:
[1] = system: DCs from murine bone marrow (CD11c+ monocytes); test: Dendritic cell surface receptor expression (CD40, CD80, CD86, MHC Class II) by flow cytometry after cultivation with additives; type: cell-based, NOD mouse
Source text: FIG. 1: Dendritic cell (CD11c+ monocytes) surface receptor expression after cultivation with various additives. Expression as indicated by the MFI of CD11+ monocyte cells stained with fluorescent antibodies towards CD40, CD80, CD86 and MHC Class II. A: comparing cells untreated (iDCs), matured with MPLA (mDCs), and cells treated with GABA, GABA and rhGAD65, and GABA and rhGAD65 matured with MPLA. B: comparing cells untreated (iDCs), matured with MPLA (mDCs), and cells treated with GABA, GABA and alhydrogel adsobed rhGAD65, and GABA and alhydrogel adsorbed rhGAD65 matured with MPLA. C: comparing cells untreated (iDCs), matured with MPLA (mDCs), and cells treated with GABA and rhGAD65 matured with MPLA, GABA and alhydrogel adsorbed rhGAD65 matured with MPLA, and cells treated with Dex and VD3 and matured with MPLA.
FIG. 1 (A, B and C) show the surface expression pattern of CD80, CD86, CD40 and MCH Class II proteins on murine DCs treated according to different protocols.
Mouse bone marrow-derived dendritic cells (BMDCs) were generated from bone marrow cells (femura) of 8-week-old NOD mouse females in complete RPMI 1640 medium (Lonza, Basel Switzerland) in the presence of GM-CSF (20 ng/ml) and IL-4 (4.5 ng/ml, PeproTech) for 6 days. Fresh medium was added on day 3 and comparator tDCs were induced by adding dexamethasone (1 μM) and vitamin D3 (0.5 ng/ml) on day 6, while mDCs were generated without tolerogenic factors, and iDCs were untreated for the entire cultivation period. Similarly for GABA testing, GABA was added on day 6 in at a concentration of 100 μM. Exposure to antigen was achieved by adding GAD65 (either pure GAD65 protein or alum adsorbed GAD65) to the cultivation mixture on day 6 along with tolerizing agents at a concentration of 5 μg/ml. […] Cells were harvested on day 8.
Mouse DCs were characterized by flowcytometry using following mAbs purchased from eBioscience; anti-CD11c-APC (clone N418), anti-CD40-PerCP-eFluor710 (clone 1C10), anti-CD80-FITC (clone 16-10A1), anti-CD86-PE (clone GL1), and anti-MHC II (I-A/I-E) (clone MS/114.15.2). Cells were stained with fluorochrome-conjugated antibodies against surface molecules and data were acquired by LSR II flow cytometers (BD Biosciences) and analyzed using FlowJo software (Tree Star).

[2] = system: CD11c+ DCs (IL-12 production); test: Intracellular IL-12 expression of treated dendritic cells by FACS; type: cell-based, NOD mouse; settings: with alhydrogel adsorbed rhGAD65, activated with MPLA, FIG. 2B
Source text: FIG. 2: IL-12 production of treated dendritic cells. A: FACS plots showing the intracellular IL-12 expression of CD11c+ monocytes as percent IL-12+ cells of parent population; from left to right, untreated (iDCs), matured by MPLA (mDCs), tolerogenic by Dex and VD3 and tolerogenic by GABA. B: Column diagram of percent of parent numbers of the same groups.
In FIG. 2A, FACS plots of the intracellular expression of IL-12 of untreated CD11c+ DCs (iDCs), proinflammatory matured DCs (mDCs), DCs treated with Dex, VD3 and alhydrogel adsorbed rhGAD65 activated by MPLA, and DCs treated with GABA and alhydrogel adsorbed rhGAD65 activated by MPLA are shown. IL-12 is a proinflammatory cytokine, and low production is indicative of tolerogenic DCs. The IL-12+ cells are shown in the upper left quadrant of the plots.
Tolerogenically treated cells on the other hand generally have very low expression of IL-12. Both cells treated with Dex and VD3 and those treated with GABA, even though they have been activated with MPLA, show very low numbers of IL-12+ cells.
Mouse bone marrow-derived dendritic cells (BMDCs) were generated from bone marrow cells (femura) of 8-week-old NOD mouse females in complete RPMI 1640 medium (Lonza, Basel Switzerland) in the presence of GM-CSF (20 ng/ml) and IL-4 (4.5 ng/ml, PeproTech) for 6 days. […]

[3] = system: dendritic cells obtained from mouse bone marrow; settings: compared to LPS or mouse serum albumin treatment
Procedure: Dendritic cells obtained from mouse bone marrow are used. In order to secure a large amount of the number of the dendritic cells, Inaba's culture method (Inaba et al., J. Exp. Med. 175:1157, 1992), which is a representative method of culturing a dendritic cell, is modified and applied to the dendritic cells. […] A tibia and a femur of a mouse aged 6 to 11 weeks are extracted, and a RPMI1640 medium is added to bone marrow of the tibia and the femur to obtain bone marrow cells therefrom. Then, hypotonic ammonium chloride-potassium (ACK) lysing buffer is used for the lysis of red blood cells. The bone marrow cells are cultured in an RPMI1640 medium containing about 10 to 20 ng/ml recombinant mouse GMCSF, about 5 to 10 ng/ml recombinant mouse IL4, 5 to 10% heat inactivated fetal bovine serum, L-glutamine, 25 mM of HEPES, penicillin, and streptomycin under conditions of 5% CO2 and a temperature of 37° C., thereby inducing differentiation into dendritic cells. The medium is replaced every 2 days with a medium containing the recombinant cytokines. After 2 and 4 days of the culture, granulocytes and lymphocytes that are floating on the culture dish are removed. After 6 days of the culture, dendritic cells that are differentiated from precursor cells attached on the bottom of the culture dish and that have characteristic protrusions in suspension are used in the experiments. […]

Compound: NCCCC(=O)O [GABA, gamma-aminobutyric acid]
- surface protein expression profile (CD80, CD86, CD40, MHC Class II) ([1]; 100 μM GABA alone, FIG. 1A): more similar to iDCs and indicative of tDCs
- tolerogenic expression pattern compared to Dexamethasone, Vitamin D and MPLA protocol ([1]; 100 μM GABA and stabilization with MPLA, FIG. 1C): comparable or better
- surface molecule expression ([1]; GABA plus alhydrogel adsorbed rhGAD65, then MPLA, FIG. 1B): keep a low surface molecule expression
- surface protein expression profile (CD80, CD86, CD40, MHC Class II) ([1]; GABA plus antigen GAD65 (rhGAD65), no MPLA): remains the same; also recorded: remains indicative of tDCs
- surface protein expression profile (CD80, CD86, CD40, MHC Class II) ([1]; GABA plus rhGAD65, then MPLA): increases slightly but is still much lower than mDCs; also recorded: still remains almost the same
- CD80 expression compared to Dex and VD3 treated cells ([1]; activated by MPLA, FIG. 1C): even lower
- numbers of IL-12+ cells (percentage of CD11c+ monocytes that are IL-12 positive) [2]: very low
- amount of maturation markers on the surface of the dendritic cells (CD40, CD80, CD86, MHC class II) [3]: decreased
